For 20 molecules, EC50 results are on record in patent US11912686B2 (Gilead Sciences, Inc., priority 2020, dated 2024).

The term EC50 denotes the concentration at which the effect is half-maximal.

Each structure is given as a SMILES string.

The target in the test is human LPAR1 (Homo sapiens (Human), UniProt Q92633). Kind of test: LPAR1 intracellular calcium mobilization assay (antagonist mode, FLIPR). It counts as cell-based. Conditions: CHO-K1 EDG2 cells expressing human LPAR1, LPA 18:2 at EC80 (100 nM), test compound 0.5 nM to 10 μM.
Sequence of human LPAR1 (Q92633 whole entry): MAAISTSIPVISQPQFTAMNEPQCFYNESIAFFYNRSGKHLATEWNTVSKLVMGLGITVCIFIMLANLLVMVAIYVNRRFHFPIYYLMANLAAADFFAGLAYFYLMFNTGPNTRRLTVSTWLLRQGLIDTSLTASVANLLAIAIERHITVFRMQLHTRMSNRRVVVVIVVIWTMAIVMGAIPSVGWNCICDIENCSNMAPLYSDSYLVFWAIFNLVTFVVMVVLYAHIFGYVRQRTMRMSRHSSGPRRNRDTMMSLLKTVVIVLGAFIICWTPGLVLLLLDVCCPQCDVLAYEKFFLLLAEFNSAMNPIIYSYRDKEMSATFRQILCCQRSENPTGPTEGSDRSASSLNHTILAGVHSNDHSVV
Take `C[C@@H](OC(=O)Nc1c(-c2ccc(NC(=O)C3(C#N)COC3)cn2)nnn1C)c1cccnc1Cl` [Compound 93, (R)-1-(2-chloropyridin-3-yl)ethyl (4-(5-(3-cyanooxetane-3-carboxamido)pyridin-2-yl)-1-methyl-1H-1,2,3-triazol-5-yl)carbamate]: the EC50 came to 133 nM.
The same measure for `C[C@@H](OC(=O)Nc1c(-c2ccc(NC(=O)C3(C#N)C(C#N)C3(C)C)cn2)nnn1C)c1cccnc1Cl` (stereo partly drawn) [Compound 145, (R)-1-(2-chloropyridin-3-yl)ethyl (4-(5-(1,3-dicyano-2,2-dimethylcyclopropane-1-carboxamido)pyridin-2-yl)-1-methyl-1H-1,2,3-triazol-5-yl)carbamate]: 184 nM; for `C[C@@H](OC(=O)Nc1c(-c2ccc(NC(=O)[C@H]3[C@H](C4CC4)C3(F)F)cn2)nnn1C)c1cc(F)cnc1F` (mixture of isomers) [Compound 248, (R)-1-(2,5-difluoropyridin-3-yl)ethyl (4-(5-((1RS,2SR)-3,3-difluoro-[1,1′-bi(cyclopropane)]-2-carboxamido)pyridin-2-yl)-1-methyl-1H-1,2,3-triazol-5-yl)carbamate]: 29.8 nM; for `C[C@@H](OC(=O)Nc1c(-c2ccc(NC(=O)C34CC(C5COC5)(C3)C4)cn2)nnn1C)c1cccnc1Cl` [Compound 44, (R)-1-(2-chloropyridin-3-yl)ethyl (1-methyl-4-(5-(3-(oxetan-3-yl)bicyclo[1.1.1]pentane-1-carboxamido)pyridin-2-yl)-1H-1,2,3-triazol-5-yl)carbamate]: 165 nM.
The same measure for `C[C@@H](OC(=O)Nc1c(-c2ccc(NC(=O)C3CC34CC4)cn2)nnn1C)c1cccnc1Cl` (stereo partly drawn) [Compound 149, (R)-1-(2-chloropyridin-3-yl)ethyl (1-methyl-4-(5-(spiro[2.2]pentane-1-carboxamido)pyridin-2-yl)-1H-1,2,3-triazol-5-yl)carbamate]: 329 nM; for `C[C@@H](OC(=O)Nc1c(-c2ccc(NC(=O)C34CC(C#N)(C3)C4)cn2)nnn1C)c1cccnc1Cl` [Compound 64, (R)-1-(2-chloropyridin-3-yl)ethyl (4-(5-(3-cyanobicyclo[1.1.1]pentane-1-carboxamido)pyridin-2-yl)-1-methyl-1H-1,2,3-triazol-5-yl)carbamate]: 76.4 nM; for `C[C@@H](OC(=O)Nc1c(-c2ccc(NC(=O)c3cccc(C#N)n3)cn2)nnn1C)c1cccnc1Cl` [Compound 98, (R)-1-(2-chloropyridin-3-yl)ethyl (4-(5-(6-cyanopicolinamido)pyridin-2-yl)-1-methyl-1H-1,2,3-triazol-5-yl)carbamate]: 720 nM.
As to `C[C@@H](OC(=O)Nc1c(-c2cc(F)c(NC(=O)C3(C#N)CC3)cn2)nnn1C)c1cccnc1Cl` [Compound 183, (R)-1-(2-chloropyridin-3-yl)ethyl (4-(5-(1-cyanocyclopropane-1-carboxamido)-4-fluoropyridin-2-yl)-1-methyl-1H-1,2,3-triazol-5-yl)carbamate], the EC50 stood at 1060 nM.
Turning to `C[C@@H](OC(=O)Nc1c(-c2ccc(NC(=O)C3(C)CC(F)(F)C3)cn2)nnn1C)c1cccnc1F` [Compound 291, (R)-1-(2-fluoropyridin-3-yl)ethyl (4-(5-(3,3-difluoro-1-methylcyclobutane-1-carboxamido)pyridin-2-yl)-1-methyl-1H-1,2,3-triazol-5-yl)carbamate], the EC50 worked out at 157 nM.
Consider `C[C@@H](OC(=O)Nc1c(-c2ccc(NC(=O)c3ccc(C(F)F)nc3)cn2)nnn1C)c1cc(F)cnc1F` [Compound 222, (R)-1-(2,5-difluoropyridin-3-yl)ethyl (4-(5-(6-(difluoromethyl)nicotinamido)pyridin-2-yl)-1-methyl-1H-1,2,3-triazol-5-yl)carbamate], for which the 50% effective concentration (EC50) was 41.7 nM.
As for `C[C@@H](OC(=O)Nc1c(-c2ccc(NC(=O)c3cncc(C(F)F)c3)cn2)nnn1C)c1cc(F)cnc1F` [Compound 219, (R)-1-(2,5-difluoropyridin-3-yl)ethyl (4-(5-(5-(difluoromethyl)nicotinamido)pyridin-2-yl)-1-methyl-1H-1,2,3-triazol-5-yl)carbamate], the EC50 was determined as 37.7 nM.
`C[C@@H](O)C(=O)Nc1ccc(-c2nnn(C)c2NC(=O)O[C@H](C)c2cccnc2Cl)nc1` [Compound 124, (R)-1-(2-chloropyridin-3-yl)ethyl (4-(5-((R)-2-hydroxypropanamido)pyridin-2-yl)-1-methyl-1H-1,2,3-triazol-5-yl)carbamate]: the concentration giving a half-maximal response (EC50) came out at 3630 nM.
Regarding `C[C@@H](OC(=O)Nc1c(-c2ccc(NC(=O)C3CC(C)(O)C3)cn2)nnn1C)c1cccnc1Cl` (stereo partly drawn) [Compound 108, (R)-1-(2-chloropyridin-3-yl)ethyl (4-(5-(3-hydroxy-3-methylcyclobutane-1-carboxamido)pyridin-2-yl)-1-methyl-1H-1,2,3-triazol-5-yl)carbamate], the concentration giving a half-maximal response (EC50) is 420 nM.
Take `C[C@@H](OC(=O)Nc1c(-c2ccc(NC(=O)C3CC3)cn2)nnn1C)c1cccnc1Cl` [Compound 34, (R)-1-(2-chloropyridin-3-yl)ethyl (4-(5-(cyclopropanecarboxamido)pyridin-2-yl)-1-methyl-1H-1,2,3-triazol-5-yl)carbamate]: the half-maximal effective concentration (EC50) is 429 nM.
Consider `C[C@@H](OC(=O)Nc1c(-c2ccc(NC(=O)c3cnc(F)cc3F)cn2)nnn1C)c1cc(F)cnc1F` [Compound 255, (R)-1-(2,5-difluoropyridin-3-yl)ethyl (4-(5-(4,6-difluoronicotinamido)pyridin-2-yl)-1-methyl-1H-1,2,3-triazol-5-yl)carbamate], for which the EC50 was 346 nM.
Turning to `CC(=O)Nc1cnc(-c2nnn(C)c2NC(=O)O[C@H](C)c2cccnc2Cl)cc1F` [Compound 10, (R)-1-(2-chloropyridin-3-yl)ethyl (4-(5-acetamido-4-fluoropyridin-2-yl)-1-methyl-1H-1,2,3-triazol-5-yl)carbamate], the EC50 was found to be 1020 nM.
In the case of `C[C@@H](OC(=O)Nc1c(-c2ccc(NC(=O)[C@H]3C[C@H](NCC(F)(F)F)C3)cn2)nnn1C)c1cccnc1Cl` [Compound 306, (R)-1-(2-chloropyridin-3-yl)ethyl (1-methyl-4-(5-((1r,3R)-3-((2,2,2-trifluoroethyl)amino)cyclobutane-1-carboxamido)pyridin-2-yl)-1H-1,2,3-triazol-5-yl)carbamate], the concentration giving a half-maximal response (EC50) was 99.7 nM.
For `C[C@@H](OC(=O)Nc1c(-c2ccc(NC(=O)[C@@]3(C#N)C[C@@H]3C(F)F)cn2)nnn1C)c1cc(F)cnc1F` [Compound 246, (R)-1-(2,5-difluoropyridin-3-yl)ethyl (4-(5-((1S,2S)-1-cyano-2-(difluoromethyl)cyclopropane-1-carboxamido)pyridin-2-yl)-1-methyl-1H-1,2,3-triazol-5-yl)carbamate], the EC50 worked out at 103 nM.
`C[C@@H](OC(=O)Nc1c(-c2ccc(NC(=O)C3(C(F)(F)F)CCC3)cn2)nnn1C)c1cccnc1Cl` [Compound 48, (R)-1-(2-chloropyridin-3-yl)ethyl (1-methyl-4-(5-(1-(trifluoromethyl)cyclobutane-1-carboxamido)pyridin-2-yl)-1H-1,2,3-triazol-5-yl)carbamate]: the EC50 was determined as 22.8 nM.
With `C[C@@H](OC(=O)Nc1c(-c2ccc(NC(=O)C(F)(F)F)cc2)nnn1C)c1cccc(F)c1` [Compound 1, (R)-1-(3-fluorophenyl)ethyl (1-methyl-4-(4-(2,2,2-trifluoroacetamido)phenyl)-1H-1,2,3-triazol-5-yl)carbamate], the 50% effective concentration (EC50) came out at 6520 nM.
